We go through 15 molecules from patent US20160222056A1, “SUBSTITUTED PHENYLALANINE DERIVATIVES” (BAYER PHARMA AKTIENGESELLSCHAFT, priority 2013, published 2016).

Where a name gives a salt, the structure may show the parent alone. Read-outs that look alike come from different tables or passages of the source.

One assay has as its target T1, human factor XIa (Homo sapiens, UniProt P03951).
T1 construct: purchased Kordia
Kind of assay: Measurement of FXIa inhibition (fluorogenic peptide substrate). It counts as biochemical. The protocol:
To determine the factor XIa inhibition of the substances according to the invention, a biochemical test system is used which utilizes the reaction of a peptidic factor XIa substrate to determine the enzymatic activity of human factor XIa. Here, factor XIa cleaves from the peptic factor XIa substrate the C-terminal aminomethylcoumarin (AMC), the fluorescence of which is measured. The determinations are carried out in microtitre plates.
Test substances are dissolved in dimethyl sulphoxide and serially diluted in dimethyl sulphoxide (3000 μM to 0.0078 μM; resulting final concentrations in the test: 50 μM to 0.00013 μM). In each case 1 μl of the diluted substance solutions are placed into the wells of white microtitre plates from Greiner (384 wells). Subsequently, the following are added successively: 20 μl of assay buffer (50 mmol/1 Tris buffer pH 7.4; 100 mmol/1 sodium chloride; 5 mmol/1 calcium chloride; 0.1% bovine serum albumin) and 20 μl of factor XIa from Kordia (0.45 nM in assay buffer). After 15 min of incubation, the enzyme reaction is started by addition of 20 μl of the factor XIa substrate Boc-Glu(OBzl)-Ala-Arg-AMC dissolved in assay buffer (10 μM in assay buffer) from Bachem, the mixture is incubated at room temperature (22° C.) for 30 min and fluorescence is then measured (excitation: 360 nm, emission: 460 nm). The measured emissions of the test batches with test substance are compared to those of control batches without test substance (only dimethyl sulphoxide instead of test substance in dimethyl sulphoxide), and the IC50 values are calculated from the concentration/activity relationships.

In a further assay the test system is human and animal plasma. Kind of assay: Anticoagulatory activity: activated partial thromboplastin time (aPTT) in plasma. It is filed as biochemical. The note with it: in vitro in plasma, C.K. Prest kit, 37° C. for 3 minutes; plasma species of Table B not stated. As to the method:
The anticoagulatory activity of the test substances is determined in vitro in human and animal plasma (for example mouse, rat, rabbit, pig and dog plasma). To this end, blood is drawn off in a mixing ratio of sodium citrate/blood of 1:9 using a 0.11 molar sodium citrate solution as receiver. Immediately after the blood has been drawn off, it is mixed thoroughly and centrifuged at about 4000 g for 15 minutes. The supernatant is pipetted off.
The activated partial thromboplastin time (aPTT) is determined in the presence of varying concentrations of test substance or the corresponding solvent using a commercial test kit (C.K. Prest from Diagnostica Stago). The test compounds are incubated with the plasma and the PTT reagent (cephalin, kaolin) at 37° C. for 3 minutes. Coagulation is then started by addition of 25 mM aqueous calcium chloride, and the time when coagulation occurs is determined. The concentration of test substance which brings about a 1.5-fold extension of the aPTT is determined.

Where [1] appears, read: human factor XIa from Kordia, substrate Boc-Glu(OBzl)-Ala-Arg-AMC, 30 min at 22° C., read-out: IC50 (FXIa inhibition).

As a reminder, the IC50 is the concentration needed to halve the response being measured.

T1 sequence (P03951 388-625 limits assumed): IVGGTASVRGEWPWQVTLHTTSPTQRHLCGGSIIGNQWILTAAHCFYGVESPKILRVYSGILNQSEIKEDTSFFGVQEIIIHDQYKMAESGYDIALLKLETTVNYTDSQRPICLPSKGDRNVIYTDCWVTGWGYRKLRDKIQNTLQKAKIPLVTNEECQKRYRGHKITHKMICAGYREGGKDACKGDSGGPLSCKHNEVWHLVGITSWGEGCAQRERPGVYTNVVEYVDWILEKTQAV
T1 sequence (P03951 19-387 partner limits assumed): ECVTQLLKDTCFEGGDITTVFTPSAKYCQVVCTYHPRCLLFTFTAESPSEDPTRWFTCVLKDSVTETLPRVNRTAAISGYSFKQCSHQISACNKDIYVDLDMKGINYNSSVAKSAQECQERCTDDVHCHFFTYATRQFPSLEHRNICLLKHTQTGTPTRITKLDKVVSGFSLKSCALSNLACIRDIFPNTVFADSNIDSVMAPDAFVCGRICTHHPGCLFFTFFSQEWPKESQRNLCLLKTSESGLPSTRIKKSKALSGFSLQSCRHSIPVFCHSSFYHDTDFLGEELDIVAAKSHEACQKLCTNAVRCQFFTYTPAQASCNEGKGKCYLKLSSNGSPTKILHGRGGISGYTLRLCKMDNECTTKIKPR

On to `Cc1nc(C(=O)N[C@H]2CCNC2)ccc1-c1ccc(C[C@H](NC(=O)[C@H]2CC[C@H](CN)CC2)C(=O)Nc2ccc3[nH]c(=O)[nH]c3c2)cc1` [Example 14, N-alpha-{[trans-4-(Aminomethyl)cyclohexyl]carbonyl}-4-{2-methyl-6-[(3S)-pyrrolidin-3-ylcarbamoyl]pyridin-3-yl}-N-(2-oxo-2,3-dihydro-1H-benzimidazol-5-yl)-L-phenylalaninamide hydrochloride], for which the IC50 at human factor XIa (setting [1]) is 30 nM. The “aPTT (concentration of test substance which brings about a 1.5-fold extension of the aPTT)” value with human and animal plasma was found to be 0.08 µmol/L.

As to `CCN(CC)CCCNC(=O)c1cc(C)c(-c2ccc(C[C@H](NC(=O)[C@H]3CC[C@H](CN)CC3)C(=O)Nc3ccc(-c4nnn[nH]4)cc3)cc2)cn1` [Example 9, N-alpha-{[trans-4-(Aminomethyl)cyclohexyl]carbonyl}-4-(6-{[3-(diethylamino)propyl]-carbamoyl}-4-methylpyridin-3-yl)-N-[4-(1H-tetrazol-5-yl)phenyl]-L-phenylalaninamide hydrochloride], at human factor XIa (setting [1]), the IC50 amounted to 5.2 nM. The “aPTT (concentration of test substance which brings about a 1.5-fold extension of the aPTT)” value in the assay with human and animal plasma turned out to be 0.05 µmol/L.

`Cc1nc(C(=O)N[C@@H]2CCN[C@H](C)C2)ccc1-c1ccc(C[C@H](NC(=O)[C@H]2CC[C@H](CN)CC2)C(=O)Nc2ccc(-c3nn[nH]n3)cc2)cc1` [Example 18, N-alpha-{[trans-4-(Aminomethyl)cyclohexyl]carbonyl}-4-(2-methyl-6-{[(2R,4R)-2-methylpiperidin-4-yl]carbamoyl}pyridin-3-yl)-N-[4-(2H-tetrazol-5-yl)phenyl]-L-phenylalaninamide hydrochloride] gave an IC50 against human factor XIa of 4.5 nM. Moreover, in the assay with human and animal plasma, the “aPTT (concentration of test substance which brings about a 1.5-fold extension of the aPTT)” value came out at 0.12 µmol/L.

As for `Cc1cc(C(=O)N[C@@H]2CCCNC2=O)ncc1-c1ccc(C[C@H](NC(=O)[C@H]2CC[C@H](CN)CC2)C(=O)Nc2ccc(-c3nnn[nH]3)cc2)cc1` [Example 21, N-alpha-{[trans-4-(Aminomethyl)cyclohexyl]carbonyl}-4-(4-methyl-6-{[(3R)-2-oxopiperidin-3-yl]carbamoyl}pyridin-3-yl)-N-[4-(1H-tetrazol-5-yl)phenyl]-L-phenylalaninamide hydrochloride], the IC50 at human factor XIa (setting [1]) turned out to be 1.3 nM. In addition, the “aPTT (concentration of test substance which brings about a 1.5-fold extension of the aPTT)” value in the assay with human and animal plasma is 0.15 µmol/L.

Take `Cc1cc(C(=O)N2CCNC(C)C2)ncc1-c1ccc(C[C@H](NC(=O)[C@H]2CC[C@H](CN)CC2)C(=O)Nc2ccc(-c3nnn[nH]3)cc2)cc1` (stereo partly drawn) [Example 25, N-alpha-{[trans-4-(Aminomethyl)cyclohexyl]carbonyl}-4-{4-methyl-6-[(3-methylpiperazin-1-yl)carbonyl]pyridin-3-yl}-N-[4-(1H-tetrazol-5-yl)phenyl]-L-phenylalaninamide hydrochloride]: the IC50 at human factor XIa (setting [1]) came to 4.2 nM. The “aPTT (concentration of test substance which brings about a 1.5-fold extension of the aPTT)” value with human and animal plasma came out at 0.18 µmol/L.

With `Cc1cc(C(=O)N2CC(C)NC(C)C2)ncc1-c1ccc(C[C@H](NC(=O)C2CCC(CN)CC2)C(=O)Nc2ccc(-c3nnn[nH]3)cc2)cc1` (stereo partly drawn) [Example 6, N-alpha-{[trans-4-(Aminomethyl)cyclohexyl]carbonyl}-4-{6-[(3,5-dimethylpiperazin-1-yl)carbonyl]-4-methylpyridin-3-yl}-N-[4-(1H-tetrazol-5-yl)phenyl]-L-phenylalaninamide hydrochloride], the IC50 on human factor XIa (setting [1]) stood at 4.1 nM. Also, the “aPTT (concentration of test substance which brings about a 1.5-fold extension of the aPTT)” value with human and animal plasma was 0.04 µmol/L.

`Cc1nc(C(=O)N[C@H]2CCNC2)ccc1-c1ccc(C[C@H](NC(=O)[C@H]2CC[C@H](CN)CC2)C(=O)Nc2ccc(-c3nn[nH]n3)cc2)cc1` [Example 15, N-alpha-{[trans-4-(Aminomethyl)cyclohexyl]carbonyl}-4-{2-methyl-6-[(3S)-pyrrolidin-3-ylcarbamoyl]pyridin-3-yl}-N-[4-(2H-tetrazol-5-yl)phenyl]-L-phenylalaninamide hydrochloride]: the IC50 on human factor XIa (setting [1]) worked out at 3.2 nM. Also, in the assay with human and animal plasma, the “aPTT (concentration of test substance which brings about a 1.5-fold extension of the aPTT)” value stood at 0.1 µmol/L.

With `Cc1cc(C(=O)NC2CC3COCC(C2)N3)ncc1-c1ccc(C[C@H](NC(=O)C2CCC(CN)CC2)C(=O)Nc2ccc(-c3nnn[nH]3)cc2)cc1` (stereo partly drawn) [Example 11, N-alpha-{[trans-4-(Aminomethyl)cyclohexyl]carbonyl}-4-[4-methyl-6-(3-oxa-9-azabicyclo[3.3.1]non-7-ylcarbamoyl)pyridin-3-yl]-N-[4-(1H-tetrazol-5-yl)phenyl]-L-phenylalaninamide hydrochloride], the IC50 at human factor XIa (setting [1]) was determined as 5.2 nM. Besides, the “aPTT (concentration of test substance which brings about a 1.5-fold extension of the aPTT)” value in the assay with human and animal plasma turned out to be 0.07 µmol/L.

For `Cc1cc(C(=O)NC2CC3CCC(C2)N3)ncc1-c1ccc(CC(NC(=O)C2CCC(CN)CC2)C(=O)Nc2ccc(-c3nnn[nH]3)cc2)cc1` [Example 10, N-alpha-{[trans-4-(Aminomethyl)cyclohexyl]carbonyl}-4-{6-[(1R,5S)-8-azabicyclo[3.2.1]oct-3-ylcarbamoyl]-4-methylpyridin-3-yl}-N-[4-(1H-tetrazol-5-yl)phenyl]-L-phenylalaninamide hydrochloride], at human factor XIa (setting [1]), the IC50 turned out to be 3 nM. For the same molecule, the “aPTT (concentration of test substance which brings about a 1.5-fold extension of the aPTT)” value in the assay on human and animal plasma was 0.07 µmol/L.

Turning to `Cc1cc(C(=O)NCCCN(C)C)ncc1-c1ccc(C[C@H](NC(=O)[C@H]2CC[C@H](CN)CC2)C(=O)Nc2ccc(-c3nnn[nH]3)cc2)cc1` [Example 12, N-alpha-{[trans-4-(Aminomethyl)cyclohexyl]carbonyl}-4-(6-{[3-(dimethylamino)propyl]-carbamoyl}-4-methylpyridin-3-yl)-N-[4-(1H-tetrazol-5-yl)phenyl]-L-phenylalaninamide hydrochloride], at human factor XIa (setting [1]), the half-maximal inhibitory concentration (IC50) is 4.8 nM. In the assay with human and animal plasma, the “aPTT (concentration of test substance which brings about a 1.5-fold extension of the aPTT)” value turned out to be 0.08 µmol/L.

For the molecule `Cc1cc(C(=O)NC2CNCC(F)(F)C2)ncc1-c1ccc(C[C@H](NC(=O)[C@H]2CC[C@H](CN)CC2)C(=O)Nc2ccc(-c3nnn[nH]3)cc2)cc1` (stereo partly drawn) [Example 20, N-alpha-{[trans-4-(Aminomethyl)cyclohexyl]carbonyl}-4-{6-[(5,5-difluoropiperidin-3-yl)carbamoyl]-4-methylpyridin-3-yl}-N-[4-(1H-tetrazol-5-yl)phenyl]-L-phenylalaninamide hydrochloride], the IC50 on human factor XIa (setting [1]) stood at 3.9 nM. Also, the “aPTT (concentration of test substance which brings about a 1.5-fold extension of the aPTT)” value with human and animal plasma was determined as 0.13 µmol/L.

On to `Cc1cc(C(=O)NC2CCNCC2F)ncc1-c1ccc(C[C@H](NC(=O)C2CCC(CN)CC2)C(=O)Nc2ccc(-c3nnn[nH]3)cc2)cc1` (stereo partly drawn) [Example 8, N-alpha-{[trans-4-(Aminomethyl)cyclohexyl]carbonyl}-4-{6-[(3-fluoropiperidin-4-yl)carbamoyl]-4-methylpyridin-3-yl}-N-[4-(1H-tetrazol-5-yl)phenyl]-L-phenylalaninamide hydrochloride], for which the half-maximal inhibitory concentration (IC50) on human factor XIa (setting [1]) worked out at 2.2 nM. Moreover, the “aPTT (concentration of test substance which brings about a 1.5-fold extension of the aPTT)” value with human and animal plasma came to 0.05 µmol/L.

In the case of `Cc1nc(C(=O)N[C@H]2CC[C@H](N)CC2)ccc1-c1ccc(C[C@H](NC(=O)[C@H]2CC[C@H](CN)CC2)C(=O)Nc2ccc(-c3nn[nH]n3)cc2)cc1` [Example 31, 4-{6-[(trans-4-Aminocyclohexyl)carbamoyl]-2-methylpyridin-3-yl}-N-alpha-{[trans-4-(aminomethyl)cyclohexyl]carbonyl}-N-[4-(2H-tetrazol-5-yl)phenyl]-L-phenylalaninamide hydrochloride], the IC50 on human factor XIa (setting [1]) came to 1.9 nM.

In the case of `Cc1cc(C(=O)N2CCNC(=O)C2)ncc1-c1ccc(C[C@H](NC(=O)[C@H]2CC[C@H](CN)CC2)C(=O)Nc2ccc(-c3nnn[nH]3)cc2)cc1` [Example 32, N-alpha-{[trans-4-(Aminomethyl)cyclohexyl]carbonyl}-4-{4-methyl-6-[(3-oxopiperazin-1-yl)carbonyl]pyridin-3-yl}-N-[4-(1H-tetrazol-5-yl)phenyl]-L-phenylalaninamide hydrochloride], the IC50 on human factor XIa (setting [1]) amounted to 1.8 nM.

With `Cc1nc(C(=O)NC2CCN(C)CC2)ccc1-c1ccc(C[C@H](NC(=O)[C@H]2CC[C@H](CN)CC2)C(=O)Nc2ccc(-c3nnn[nH]3)cc2)cc1` [Example 30, N-alpha-{[trans-4-(Aminomethyl)cyclohexyl]carbonyl}-4{-2-methyl-6-[(1-methylpiperidin-4-yl)carbamoyl]pyridin-3-yl}-N-[4-(1H-tetrazol-5-yl)phenyl]-L-phenylalaninamide hydrochloride], at human factor XIa (setting [1]), the IC50 turned out to be 5.5 nM.
